Legend:
Drosophila [1] = tested on: Drosophila
Method: In order to monitor fly behavior, five-day old virgin female Canton-S Drosophila melanogaster were cultured at 25° C., 50-60% humidity, 12 hr:12 hr light:dark cycle, on brewer's yeast, dark corn syrup and agar food, following procedures modified from J. Bennett and D. L. van Dyke, Dros. […] Continuous, high-resolution measurement of fly behavior was achieved using an ultrasound activity monitoring system shown in FIG. 1A. Briefly, a 44 kHz standing wave was passed across an independent enclosure containing a single fly. An integrated circuit sampled a portion of each wave as a function of the transmit signal and compared it to the output from the receive signal for the same time-window. When the fly moved its mass within the field, it perturbed the standing wave and the resulting difference was counted as a movement. The output was sampled by a PC at 200 Hz, the data were summed in 2-sec bins and stored for later processing. This system detects very small movements in Drosophila's behavioral repertoire, including fine movements of the head, wings, and limbs. To monitor rest-activity patterns in large numbers of flies, an infrared Drosophila Activity Monitoring System was used (Trikinetics; described in M. Hamblen et al., J. Neurogen. 3:249 (1986)). To validate the system, flies were visually monitored for a total of 17.75 h (n=7). The number of times the fly crossed the infrared beam was counted in 5-minute bins. […] Drugs (caffeine or hydroxyzine) dissolved in food were continuously available to flies beginning in the final hour of the light period.

Drosophila [2] = assay: Responsiveness to arousing stimuli (arousal threshold) in flies; type: in vivo, Drosophila melanogaster; settings: flies given drug in food
Method: In order to determine whether periods of rest are associated with increased arousal thresholds, flies were subjected to vibratory stimuli of increasing intensity (0.05 g, 0.1 g, and 6 g). In these experiments, flies were placed in glass tubes (65 mm in length, 5 mm I.D.) maintained on a hard plastic platform above a Grass speaker. The output of the speaker was controlled via a Beckman signal generator and the resulting vibration of the platform was measured with an accelerometer. Each fly received a stimulus each hour (total of 8 stimuli) of constant intensity. The behavioral state at the time of stimulus delivery and the ensuing response were videotaped and scored off-line.

| responsiveness to arousing stimuli (Drosophila [2]) | total amount of activity during the light period (Drosophila [1]; in vivo) | Structure (SMILES) | motor activity (Drosophila [1]; flies given drug in food from final hour of light period) | amount of rest during the dark period (Drosophila [1]; flies given drug in food from final hour of light period, FIG. 3C, n=36/dose, p<0.0001) | rest during the first hour of the dark period (Drosophila [1]; flies given drug in food from final hour of light period, FIG. 3D, n=40/dose) | latency to first dark period rest (Drosophila [1]; flies given drug in food from final hour of light period, FIG. 3E, n=40/dose) |
| --- | --- | --- | --- | --- | --- | --- |
|  |  | Cn1c(=O)c2c(ncn2C)n(C)c1=O [caffeine] | increased | decreased in a dose-dependent fashion |  |  |
| preserved | unchanged | OCCOCCN1CCN(C(c2ccccc2)c2ccc(Cl)cc2)CC1 (stereo not drawn) [hydroxyzine] |  |  | increased in a dose-dependent manner | decreased |
